US5079247A, “N^1 -substituted benz(cd)indol-2-imine compounds as cardiovascular agents” (American Cyanamid Company, priority 1990, dated 1992)

Tests used:
[1] = system: CaCl2-induced cardiac arrhythmias, fibrillation and cardiac death in mice; assay: Antiarrhythmic/antifibrillatory activity in anesthetized mice, calcium chloride challenge; assay type: in vivo, mice of the Swiss Webster Strain; conditions: Mus musculus, iv, 0.25 h; Dose = 10 mg/kg I.V.; calcium chloride 200 mg/kg i.v.; 15 minutes observation; read-out: CaCl2 Mice Surviving / Mice Tested (converted)
From the text: (§1) Intravenous administration of high doses of calcium or potassium chloride in animals produces cardiac arrhythmias, cardiac fibrillation and cardiac arrest. Any agent that can prevent these events is considered an antiarrhythmic/antifibrillatory agent. (Meth. and Find Exptl. Clin Pharmacal.2:223-252(1980); Pharmacol Ther. 24:401-433 (1984); Experimental Cardiac and Antiarrhythmic Drugs, L. Szekeres and Gy. J. Dapp, Akademiai Kiado Preso, Budapest, 9-448 (1971)).
(§2) The method employed is as follows: Male mice of the Swiss Webster Strain (Charles River, Wilmington, MA) weighing 25-35 g were anesthetized with ethyl carbamate (urethan) (1.5g/kg body weight i.p.). A 25-gauge needle attached to PE-20 tubing was inserted into a caudal vein for drug administration. The lead II ECG was recorded by needle electrodes placed subcutaneously in the limbs. All data were collected on a Gould Brush recorder. Animals were observed 5 minutes before drug administration. A 5, 15 or 30 minute period following drug administration was allowed before the bolus injection of calcium chloride, 200 mg/ kg i.v. or potassium chloride, 62.5 mg/kg i.v. Control mice received 4 ml/kg of 0.9% sodium chloride i.v. Mice were observed an additional 15 minutes for arrhythmias,fibrillation, survival or death. Any compound at a dose of less than 20 mg/kg i.v. in either test that protects from cardiac death 3 or more mice out of 6 mice, is considered active.

[2] = system: spontaneously hypertensive rats of the Okamoto strain; assay: Hypotensive activity in spontaneously hypertensive rats (method of Chan and Poorvin); assay type: in vivo, rat; conditions: by gavage, 100 mg/kg or less, two doses 24 hours apart; MABP at 28 hours after initial dose; average baseline MABP 160±1.5 mm of mercury
Procedure: The novel compounds of the present invention are active hypotensive agents and were tested for hypotensive activity by the method of P. S. Chan and D. Poorvin, Clinical and Experimental Hypertension, 1 (6), 817-830 (1979). Male, 16 week old, spontaneously hypertensive rats of the Okamoto strain, from Taconic Farms, Germantown, New York, having an average mean arterial blood pressure of 160±1.5 mm of mercury, were used in the test. One to 3 rats were used per test compound. […] A second identical dose of the test compound, without sodium chloride loading was given 24 hours later. At 28 hours after the initial dose the mean arterial blood pressure (MABP) was measured. The procedure was repeated in a second and third rat when necessary.

[3] = system: KCl-induced cardiac arrhythmias, fibrillation and cardiac death in mice; assay: Antiarrhythmic/antifibrillatory activity in anesthetized mice, potassium chloride challenge; assay type: in vivo, mice of the Swiss Webster Strain; conditions: Mus musculus, iv, 0.25 h; Dose = 10 mg/kg I.V.; potassium chloride 62.5 mg/kg i.v.; 15 minutes observation; read-out: KCl Mice Surviving / Mice Tested (converted)
From the text: as §1, §2

[4] = target: T1, thromboxane synthetase enzyme (Rattus norvegicus, UniProt P49430); assay: Thromboxane synthetase enzyme inhibition (TXB2 formation in platelet suspension, RIA); assay type: cell-based, Okamoto-Aoki spontaneously hypertensive rats (SHR); conditions: concentration 1 × 10^-4 M; SHR platelet suspension, 10 minutes at 37° C.
T1 construct: The platelets were isolated by centrifuging the PRP for 10 minutes; from tissue; host or cells: washed platelets from arterial blood of Okamoto-Aoki spontaneously hypertensive rats (animals from Taconic Farms)
T1 sequence (P49430 1-533): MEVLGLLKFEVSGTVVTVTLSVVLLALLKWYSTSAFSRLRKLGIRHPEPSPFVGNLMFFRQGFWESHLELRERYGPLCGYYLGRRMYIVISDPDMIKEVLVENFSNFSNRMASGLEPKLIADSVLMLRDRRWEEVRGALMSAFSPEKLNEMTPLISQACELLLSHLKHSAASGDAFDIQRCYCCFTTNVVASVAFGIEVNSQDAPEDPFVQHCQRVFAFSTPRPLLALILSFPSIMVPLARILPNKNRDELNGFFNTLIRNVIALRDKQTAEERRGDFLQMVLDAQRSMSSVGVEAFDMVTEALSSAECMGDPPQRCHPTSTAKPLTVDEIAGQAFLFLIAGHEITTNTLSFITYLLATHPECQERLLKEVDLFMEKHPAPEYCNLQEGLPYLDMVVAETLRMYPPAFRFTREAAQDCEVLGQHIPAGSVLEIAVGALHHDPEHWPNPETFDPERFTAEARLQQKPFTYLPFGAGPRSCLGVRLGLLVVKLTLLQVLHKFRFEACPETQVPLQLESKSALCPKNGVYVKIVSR
Procedure: Under urethan anethesia, […] of arterial blood from Okamoto-Aoki spontaneously hypertensive rats (SHR) (Taconic Farms, Germantown, New York) between 19 and 24 weeks in age was collected in 1 ml of 3.2% sodium citrate in a polystyrene tube. The blood was diluted with 3 ml of cold saline and centrifuged at room temperature for 15 minutes at 460Xg. The platelet rich plasma (PRP) was separated. The platelets were isolated by centrifuging the PRP for 10 minutes at 1060Xg and were washed in 4 ml of cold oxygenated Krebs phosphate buffer, pH 7.4. The chilled platelets, recovered from centrifuging at 800Xg for 10 minutes, were resuspended in oxygenated Krebs phosphate buffer and diluted to contain 4.5-6.0×10^4 platelets/μl. The inhibition of thromboxane (TX) formation was studied by determining the concentration of thromboxane B2 (TXB2), the stable hydrolysis product of TXA2. Assay samples, prepared on ice, contained 200 μl platelet suspension, 50 μl saline, and 50 μl vehicle or drug under study at a concentration of 1×10^-4 M. The samples were incubated for 10 minutes at 37° C. in metabolic shaker. The reaction was terminated by immersing the tubes in an ice bath and adding 50 μl of 0.5M citric acid. The samples were centrifuged for 10 minutes in a refrigerated centrifuge and the supernatants thus obtained were decanted and stored at -20° C. The TXB2 content for each sample was determined by a direct radioimmunoassay (RIA) utilizing a TXB2 specific RIA kit purchased from New England Nuclear, Boston, Massachusetts and expressed as pg TXB2 formed minute^-1 sample^-1, from which the percent inhibition of TXB2 formation was calculated.

In the case of `c1cc2c3c(cccc3c1)N(CCN1CCOCC1)C2=NCCCn1ccnc1` [Example 8, N-[1-[2-(4-Morpholinyl)ethyl]benz[cd]indol-2(1H)-ylidene-1H-imidazole-1-propanamine, (E)-2-butenedioate (1:2)], the responders at 10 mg/kg [1] is reported as 0%, the “Avg. MABP in mm Hg (No. of Rats)” value [2] is reported as 119 mm Hg and the responders at 10 mg/kg [3] is reported as 83.3%. For the same compound, the inhibition at 100 µM [4] was 96%.

In the case of `c1ccc(CN2C(=NCCCCn3ccnc3)c3cccc4cccc2c34)cc1` [Example 23, N-[1-(Phenylmethyl)benz[cd]indol-2(1H)-ylidene-1H-imidazole-1-butanamine,(E)-2-butenedioate (1:2)], the responders at 10 mg/kg [1] is reported as 33.3%, the “Avg. MABP in mm Hg (No. of Rats)” value [2] is reported as 124 mm Hg and the responders at 10 mg/kg [3] is reported as 100%. For the same compound, the inhibition at 100 µM [4] was 100%.

For `CN1C(=NCCCc2cccnc2)c2cccc3cccc1c23` [Example 26, N-(1 Methylbenz[cd]indol-2(1H) -ylidene)-3-pyridinepropanamine, (E)-2-butenedioate (2:3)], the responders at 10 mg/kg [1] was 16.7%, the “Avg. MABP in mm Hg (No. of Rats)” value [2] was 114 mm Hg and the responders at 10 mg/kg [3] was 33.3%. The inhibition at 100 µM [4] was 93%.

`CN1C(=NCCCCc2cccnc2)c2cccc3cccc1c23` [Example 27] was tested, and the responders at 10 mg/kg [1] was 58.3%, the “Avg. MABP in mm Hg (No. of Rats)” value [2] was 107 mm Hg and the responders at 10 mg/kg [3] was 50%. For the same compound, the inhibition at 100 µM [4] was 100%.

With `N#CCCCCN1C(=NCCCCc2cccnc2)c2cccc3cccc1c23` [Example 32, N2-[[4-(3-Pyridinyl)butyl]imino]benz[cd]indole-1(2H)-pentanenitrile, (E)2-butenedioate (4:7)] the responders at 10 mg/kg [1] was 33.3%, the “Avg. MABP in mm Hg (No. of Rats)” value [2] was 129 mm Hg and the responders at 10 mg/kg [3] was 83.3%. For the same compound, the inhibition at 100 µM [4] was 98%.

With `CC(CCn1ccnc1)N=C1c2cccc3cccc(c23)N1C(c1ccccc1)c1ccccc1` (stereo not drawn) [Example 35, N-[1-(Diphenylmethyl)benz[cd]indol-2(1H)-ylidene]alpha-methyl-1H-imidazole-1-propanamine] the responders at 10 mg/kg [1] was 0%, the “Avg. MABP in mm Hg (No. of Rats)” value [2] was 127 mm Hg and the responders at 10 mg/kg [3] was 50%. The inhibition at 100 µM [4] was 88%.
